Patent US20180217163A1, “TREATMENT OF NEURODEGENERATIVE CONDITIONS USING PKC ACTIVATORS AFTER DETERMINING THE PRESENCE OF THE APOE4 ALLELE” (priority 2015, published 2018)

Tests used:
Assay type in all cases: cell-based, human
BDNF-exon IV = BDNF-exon IV expression in SH-SY5Y cells (qRT-PCR)
Method: (§1) Human SH-SY5Y neuroblastoma cells (Sigma-Aldrich), were cultured in 45% F12K, 45% MEM, and 10% FBS. Cells were treated with cholesterol, ASPD, ApoE3/ApoE4+cholesterol, or PKC activators for 24 h. Cholesterol was dissolved in ethanol. ApoE (20 nM) and cholesterol (100 μM) were mixed separately into the cultures. To block the ApoE receptors, cells were treated with RAP for 30 min before adding ApoE. Human primary neurons (ScienCell Research Laboratories) were plated on poly-L-lysine-coated plates and were maintained in neuronal medium (ScienCell Research Laboratories) supplemented with the neuronal growth supplements (ScienCell Research Laboratories). Half of the culture medium was changed every 3 d and fresh activators were added with every medium change to maintain viable neurons.
(§2) qRT-PCR was performed and the results analyzed as described previously (Schmittgen et al., Analyzing real-time PCR data by the comparative C(T) method, Nat. Protoc., 3:1101-1108, 2008; Sen et al., 2012 supra). Total RNA (500 ng) was reverse transcribed using oligo(dT) and Superscript III (Invitrogen) at 50° C. for 1 h. The cDNA products were analyzed using a LightCycler 480 II (Roche) PCR machine and LightCycler 480 SYBR Green 1 master mix following the manufacturer's protocol. Primers for PKCε (forward primer: […], reverse primer: […], PKCα (forward-[…], reverse: […]), PKC (forward: […], reverse: CCGATG […]), GAPDH (forward: […], reverse: […]), and BDNF (forward: […], reverse: […]; Origene).
BDNF promoter- and exon specific primers were used as described previously (Pruunsild et al., Dissecting the human BDNF locus: bidirectional transcription, complex splicing, and multiple promoters, Genomics, 90:397-406, 2007). BDNF-promotor I (PI) (forward: […], reverse: […]), BDNF-promotor II (PII) (forward: […], reverse: […]), BDNF-promotor III (PIII) (forward: […], reverse: […]), BDNF-promoter (IV) (PIV) (forward: […], reverse: […]), BDNF-promoter IX (PIX) (forward: […], reverse: […]) were from Invitrogen. […]

[1] = system: HDAC6-BDNF PIII association; experiment: ChIP: HDAC6 association with BDNF promoter III
Method: as §1
(§3) BDNF promoter- and exon specific primers were used as described previously (Pruunsild et al., Dissecting the human BDNF locus: bidirectional transcription, complex splicing, and multiple promoters, Genomics, 90:397-406, 2007). […]
(§4) ChIP was conducted using the SimpleChlP Enzymatic Chromatin IP kit (Cell Signaling Technology) following the manufacturer's protocol. […] The cumulative fluorescence for each amplicon was normalized to input DNA. […]

PKCε mRNA = PKCε mRNA expression in SH-SY5Y cells (qRT-PCR); conditions: ASPD+ApoE4 treated cells plus PKC activator
Method: as §1
qRT-PCR was performed and the results analyzed as described previously (Schmittgen et al., Analyzing real-time PCR data by the comparative C(T) method, Nat. Protoc., 3:1101-1108, 2008; Sen et al., 2012 supra). Total RNA (500 ng) was reverse transcribed using oligo(dT) and Superscript III (Invitrogen) at 50° C. for 1 h. The cDNA products were analyzed using a LightCycler 480 II (Roche) PCR machine and LightCycler 480 SYBR Green 1 master mix following the manufacturer's protocol. […]

BDNF mRNA = BDNF mRNA expression in SH-SY5Y cells (qRT-PCR)
Method: as §1, §2

HDAC6 = HDAC6 nuclear translocation in SH-SY5Y cells (immunoblot); conditions: ApoE4+ASPD induced translocation, 24 h
Method: as §1
A PBS solution of 5×10^6 Human SH-SY5Y neuroblastoma cells was centrifuged and the resultant cell pellet was resuspended and washed twice with cold PBS. After the second wash, the cell pellet was resuspended in 500 μl of hypotonic buffer (20 mM Tris-Cl, pH 7.4, 10 mM NaCl, 3 mM MgCl2, and 1 mM PMSF) and incubated on ice for 15 min. Next, 25 μl of 10% NP-40 was added to the cell suspension and the sample was vortexed for 10 s. The homogenate was centrifuged for 10 min at 1000×g at 4° C. to obtain the cytoplasmic fraction (supernatant) and nuclear fraction (pellet). After removing the supernetant, the nuclear pellet was resuspended in 50 μl of complete cell extraction buffer (100 mM Tris-Cl, pH 7.4, 2 mM Na3VO4, 100 mM NaCl, 1% Triton X-100, 1 mM EDTA, 10% glycerol, 1 mM EGTA, 0.1% SDS, 1 mM NaF, 0.5% deoxycholate, 20 mM Na4P2O7, and 1 mM PMSF) and incubated on ice for 30 min with vortexing at 10 min intervals. The nuclear lysate was centrifuged at 14,000×g for 30 min at 4° C. to obtain the nuclear fraction (supernatant). Protein concentration was measured using the Coomassie Plus (Bradford) Protein Assay kit (Pierce).
Protein in samples of the supernetant and nuclear fractions was separated by SDSPAGE in a 4-20% gradient Tris-Glycine gel (Invitrogen). The protein was then transferred to nitrocellulose membrane. The membrane was blocked with BSA at room temperature for 15 min and incubated with primary antibody overnight at 4° C. After incubation, the membrane was washed thrice (3×) with TBS-T (Tris-buffered saline-Tween 20) and further incubated with alkaline-phosphatase-conjugated secondary antibody (Jackson Immunoresearch Laboratories) at 1:10,000 dilution for 45 min. Following incubation, the membrane was washed 3× with TBS-T and developed using the 1-step NBT-BCIP substrate (Pierce). […] The immunoblot proteins were detected using ImageQuant RT-ECL (GE Life Sciences) and densitometric quantification was performed using IMAL software, which was developed at our institution. […]

HDAC4 = HDAC4 nuclear translocation in SH-SY5Y cells (immunoblot); conditions: ApoE4+ASPD induced translocation, 24 h
Method: as §1
A PBS solution of 5×10^6 Human SH-SY5Y neuroblastoma cells was centrifuged and the resultant cell pellet was resuspended and washed twice with cold PBS. After the second wash, the cell pellet was resuspended in 500 μl of hypotonic buffer (20 mM Tris-Cl, pH 7.4, 10 mM NaCl, 3 mM MgCl2, and 1 mM PMSF) and incubated on ice for 15 min. Next, 25 μl of 10% NP-40 was added to the cell suspension and the sample was vortexed for 10 s. The homogenate was centrifuged for 10 min at 1000×g at 4° C. to obtain the cytoplasmic fraction (supernatant) and nuclear fraction (pellet). […] Protein concentration was measured using the Coomassie Plus (Bradford) Protein Assay kit (Pierce).
Protein in samples of the supernetant and nuclear fractions was separated by SDSPAGE in a 4-20% gradient Tris-Glycine gel (Invitrogen). […] The immunoblot proteins were detected using ImageQuant RT-ECL (GE Life Sciences) and densitometric quantification was performed using IMAL software, which was developed at our institution. […]

[2] = system: HDAC6-BDNF PIV association; experiment: ChIP: HDAC6 association with BDNF promoter IV
Method: as §1, §3, §4

Q: What does the source list for `CCCCCC1CC1CC1CC1CCCCCCCC(=O)OC` (stereo not shown) [DCPLA-ME, DCPLA methyl ester]?
A: BDNF-exon IV expression (BDNF-exon IV; ApoE3+Chol+DCPLA-ME): 1.98±0.13; BDNF-exon IV expression (BDNF-exon IV; ApoE4+Chol+DCPLA-ME): 0.74±0.01; BDNF-exon IV expression (BDNF-exon IV; DCPLA-ME+Chol): 1.85±0.27 fold; effect on ApoE4+Chol induced HDAC6-PIII association [1]: blocked the ApoE4+Chol induced increase; PKCε mRNA levels (PKCε mRNA): 0.95±0.09 fold; BDNF expression (BDNF mRNA; cells treated with ApoE4+Chol+DCPLA-ME): 0.95±0.1; BDNF expression (BDNF mRNA; cholesterol treated cells): 1.91±0.21 fold; reduction in nuclear HDAC6 (HDAC6): 56±5.9%; reduction of nuclear import of HDAC4 (HDAC4): 35±6.9%; effect on ApoE4+Chol induced HDAC6-PIV association [2]: blocked the ApoE4+Chol induced increase
